Values joined by “and” are separate entries in the source; they are usually repeats but may differ in a detail not shown here. Equal entries are not always repeated.
Legend:
[1] = In vitro serum stability of radiolabeled C-NE3TA complexes in human serum (SE-HPLC); assay type: in vitro ADME; conditions: 37° C., up to 11 days
Experimental: C-NE3TA was radiolabeled with ^90Y, ^177Lu, ^203Pb, ^205/6Bi, or ^153Gd as previously described (Chong, H. S.; Milenic, D. E.; Garmestani, K.; Brady, E. D.; Arora, H.; Pfiester, C.; Brechbiel, M. W., Nucl. Med. Biol. 2006, 33, 459-67; Chong H S, Garmestani K, Bryant Jr., L H Milenic D E, Overstreet T, Birch N, Le N, Brady E D, Brechbiel M W. J. Med. Chem. 2006, 49, 2055-2062). In vitro serum stability of the radiolabeled complexes purified via ion-exchange chromatography was performed to determine if C-NE3TA labeled with the radioisotopes remained stable without transchelation or loss of their respective radionuclide in human serum. This was assessed by measuring the transfer of radionuclide from the complex to serum proteins over the course of 11 days.
In vitro stability of the radiolabeled metal complexes. The stability of the purified radiolabeled complexes was evaluated in human serum (Gemini Bioproducts, Woodland, Calif.) for up to 11 days. The serum stability of the radiolabeled complexes was assessed by measuring the transfer of the radionuclide from each complex to serum proteins using SE-HPLC methods. Radiolabeled complexes were diluted to an appropriate volume that allowed for preparation of multiple samples containing 5-10 μCi and were filter-sterilized using a Millex-GV 0.22 μm filter. This stock solution was then mixed with 1400 μL of sterile normal human serum. Aliquots (200 μL) were drawn and separated into individual tubes for subsequent analysis using aseptic technique. The samples were incubated at 37° C., and at designated intervals, subjected to analysis by SE-HPLC. Samples were loaded onto the HPLC and eluted with PBS, pH 7.4 isocratically at 1 mL/min. […] Radioactivity associated with a transfer to serum proteins generally appeared at ˜6 min.

[2] = In vivo biodistribution of radiolabeled complexes in normal athymic mice; conditions: non-tumor bearing mice, ± SD
Experimental: The in vivo stability of the radiolabeled complexes was evaluated by performing biodistribution studies in normal athymic mice. Selected organs and the blood were harvested at five time points, 0.5, 1, 4, 8, and 24 h post-injection and the radioactivity measured. […] C-NE3TA radiolabeled with ^153Gd was almost completely cleared from blood, liver, spleen, lung, heart, and femur in less than 4 hours, and radioactivity level in the kidney was 0.16%±0.11 ID/g at 24 hour post-injection (Table 9).
In vivo biodistribution studies oh the radiolabeled metal complexes. Female athymic mice were obtained from Charles River Laboratories (Wilmington, Mass.) at 4-6 weeks of age. The pH of the radiolabeled ligands was adjusted to pH ˜7.0 with 0.5 M sodium bicarbonate (pH 10.5) and diluted in phosphate-buffered saline. The radiolabeled ligands ([…] for ^86Y, ^205/6Bi, ^177Lu, and ^203Pb) were administered to the mice in 200 μL of solution via tail vein injection. The mice (5 per data point) were sacrificed by exsanguination at 0.5, 1, 4, 8, and 24 h. Blood and the major organs were harvested, wet-weighed and the radioactivity measured in a γ-scintillation counter (1480 Wizard, Perkin Elmer). The percent injected dose per gram (% ID/g) was determined for each tissue. The values presented are the mean and standard deviation for each tissue.

Row | Compound | stability in human serum (in words) [1] | percent injected dose per gram, Blood ([2]; 0.50 hr) | percent injected dose per gram, Femur ([2]; 0.50 hr) | percent injected dose per gram, Heart ([2]; 0.50 hr) | percent injected dose per gram, Kidney ([2]; 0.50 hr) | percent injected dose per gram, Liver ([2]; 0.50 hr) | percent injected dose per gram, Lung ([2]; 0.50 hr) | percent injected dose per gram, Spleen ([2]; 0.50 hr) | percent injected dose per gram, Blood ([2]; 1.00 hr) | percent injected dose per gram, Femur ([2]; 1.00 hr) | percent injected dose per gram, Heart ([2]; 1.00 hr) | percent injected dose per gram, Kidney ([2]; 1.00 hr) | percent injected dose per gram, Liver ([2]; 1.00 hr) | percent injected dose per gram, Lung ([2]; 1.00 hr) | percent injected dose per gram, Spleen ([2]; 1.00 hr) | percent injected dose per gram, Blood ([2]; 4.00 hr) | percent injected dose per gram, Femur ([2]; 4.00 hr) | percent injected dose per gram, Heart ([2]; 4.00 hr) | percent injected dose per gram, Kidney ([2]; 4.00 hr) | percent injected dose per gram, Liver ([2]; 4.00 hr) | further results
1 | O=C(O)CNC(Cc1ccc([N+](=O)[O-])cc1)CN1CCN(CC(=O)O)CCN(CC(=O)O)CC1.[153Gd] (stereo not drawn) [^153Gd-C-NE3TA] | no measurable loss of radioactivity | 1.41 ± 0.57 % ID/g | 0.43 ± 0.14 % ID/g | 0.43 ± 0.16 % ID/g | 4.28 ± 1.33 % ID/g | 1.74 ± 0.69 % ID/g | 0.91 ± 0.28 % ID/g | 0.50 ± 0.37 % ID/g | 0.20 ± 0.08 % ID/g | 1.30 ± 0.58 % ID/g | 0.14 ± 0.06 % ID/g | 1.13 ± 0.12 % ID/g | 0.58 ± 0.22 % ID/g | 0.32 ± 0.09 % ID/g | 0.24 ± 0.05 % ID/g | 0.00 ± 0.00 % ID/g | 0.02 ± 0.01 % ID/g | 0.01 ± 0.00 % ID/g | 0.52 ± 0.04 % ID/g | 0.03 ± 0.01 % ID/g | percent injected dose per gram, Lung ([2]; 4.00 hr): 0.03 ± 0.00 % ID/g; percent injected dose per gram, Spleen ([2]; 4.00 hr): 0.02 ± 0.00 % ID/g; percent injected dose per gram, Blood ([2]; 8.00 hr): 0.00 ± 0.00 % ID/g; percent injected dose per gram, Femur ([2]; 8.00 hr): 0.02 ± 0.00 % ID/g; percent injected dose per gram, Heart ([2]; 8.00 hr): 0.01 ± 0.00 % ID/g; percent injected dose per gram, Kidney ([2]; 8.00 hr): 0.38 ± 0.06 % ID/g; percent injected dose per gram, Liver ([2]; 8.00 hr): 0.02 ± 0.00 % ID/g; percent injected dose per gram, Lung ([2]; 8.00 hr): 0.02 ± 0.00 % ID/g; percent injected dose per gram, Spleen ([2]; 8.00 hr): 0.02 ± 0.00 % ID/g; percent injected dose per gram, Blood ([2]; 24.00 hr): 0.00 ± 0.00 % ID/g; percent injected dose per gram, Femur ([2]; 24.00 hr): 0.01 ± 0.00 % ID/g; percent injected dose per gram, Heart ([2]; 24.00 hr): 0.13 ± 0.27 % ID/g; percent injected dose per gram, Kidney ([2]; 24.00 hr): 0.16 % ID/g and 0.16 ± 0.11 % ID/g; percent injected dose per gram, Liver ([2]; 24.00 hr): 0.02 ± 0.01 % ID/g; percent injected dose per gram, Lung ([2]; 24.00 hr): 0.01 ± 0.01 % ID/g; percent injected dose per gram, Spleen ([2]; 24.00 hr): 0.01 ± 0.01 % ID/g
2 | O=C(O)CNC(Cc1ccc([N+](=O)[O-])cc1)CN1CCN(CC(=O)O)CCN(CC(=O)O)CC1.[177Lu] (stereo not drawn) [^177Lu-C-NE3TA] | no measurable loss of radioactivity | 0.93 ± 0.30 % ID/g | 1.06 ± 1.35 % ID/g | 0.37 ± 0.08 % ID/g | 2.78 ± 0.99 % ID/g | 0.82 ± 0.27 % ID/g | 0.87 ± 0.22 % ID/g | 0.33 ± 0.08 % ID/g | 0.31 ± 0.04 % ID/g | 0.39 ± 0.13 % ID/g | 0.19 ± 0.09 % ID/g | 1.57 ± 0.52 % ID/g | 0.69 ± 0.20 % ID/g | 0.42 ± 0.16 % ID/g | 0.28 ± 0.20 % ID/g | 0.12 ± 0.02 % ID/g | 0.36 ± 0.11 % ID/g | 0.08 ± 0.02 % ID/g | 1.34 ± 0.09 % ID/g | 0.50 ± 0.02 % ID/g | percent injected dose per gram, Lung ([2]; 4.00 hr): 0.17 ± 0.03 % ID/g; percent injected dose per gram, Spleen ([2]; 4.00 hr): 0.19 ± 0.07 % ID/g; percent injected dose per gram, Blood ([2]; 8.00 hr): 0.06 ± 0.01 % ID/g; percent injected dose per gram, Femur ([2]; 8.00 hr): 0.28 ± 0.15 % ID/g; percent injected dose per gram, Heart ([2]; 8.00 hr): 0.10 ± 0.11 % ID/g; percent injected dose per gram, Kidney ([2]; 8.00 hr): 1.16 ± 0.19 % ID/g; percent injected dose per gram, Liver ([2]; 8.00 hr): 0.36 ± 0.05 % ID/g; percent injected dose per gram, Lung ([2]; 8.00 hr): 0.15 ± 0.03 % ID/g; percent injected dose per gram, Spleen ([2]; 8.00 hr): 0.13 ± 0.02 % ID/g; percent injected dose per gram, Blood ([2]; 24.00 hr): 0.01 ± 0.00 % ID/g; percent injected dose per gram, Femur ([2]; 24.00 hr): 0.38 ± 0.10 % ID/g; percent injected dose per gram, Heart ([2]; 24.00 hr): 0.02 ± 0.01 % ID/g; percent injected dose per gram, Kidney ([2]; 24.00 hr): 0.84 ± 0.08 % ID/g; percent injected dose per gram, Liver ([2]; 24.00 hr): 0.31 ± 0.04 % ID/g; percent injected dose per gram, Lung ([2]; 24.00 hr): 0.07 ± 0.03 % ID/g; percent injected dose per gram, Spleen ([2]; 24.00 hr): 0.12 ± 0.05 % ID/g
